Among the data in BindingDB's records for doi:10.1021/jm9603072 (University of Paris, 1997) are Ki values, retold here.

As usually defined, the Ki is a measure of affinity in units of concentration, obtained from inhibition or displacement.

This assay deals with Gastrin/cholecystokinin type B receptor (Cavia porcellus). In words: Inhibition of [3H]pCCK-8 binding to Guinea pig cortex membrane Cholecystokinin type B receptor.

Structures are written as SMILES.

Turning to `C[C@]1(Cc2c[nH]c3ccccc23)NC(=O)CCCCSSCC[C@@H](C(=O)N[C@@H](CC(=O)O)C(=O)N[C@@H](Cc2ccccc2)C(N)=O)NC1=O` [N-(1-Carbamoyl-2-phenyl-ethyl)-3-{[(5R,8R)-8-(1H-indol-3-ylmethyl)-8-methyl-7,10-dioxo-1,2-dithia-6,9-diaza-cyclotetradecane-5-carbonyl]-amino}-succinamic acid], the affinity, expressed as Ki, was 51 nM.
